In US20080009418A1, “Selective Inhibitors” (Alchemia LTD., priority 2004, published 2008):

Experiments:
[1] = target: T1, Human δ-opioid (DOP) (Homo sapiens, UniProt P41143); test: Radioligand binding, human δ-opioid (DOP) membranes, FlashPlate, [3H]-Bremazocine; conditions: compound at 10 μM, [3H]-Bremazocine
T1 construct: purchased Perkin Elmer Biosignal
Method: (§1) Cloned receptor membrane preparations from Perkin Elmer Biosignal™ were used in radioligand binding assays.
(§2) A1 Human δ-opioid (DOP), A2 Human κ-Opioid (KOP), A3 Human Melanocortin (MC3), A4 Human Melanocortin (MC4), A5 Human melanocortin (MC5), A6 Human melanin-concentrating hormone (MCH1), A7 Human μ-opioid (MOP), A8 Human neurokinin (NK1), A9 Human neuropeptide Y (NPY-Y1), A10 Human opioid (ORL1) A11 Mouse urotensin (mUR2)
(§3) Screening experiments were performed in either a 50 μl filtration or 25 μl FlashPlate assay format using the following protocol:
(§4) 19.5 μl buffer, 0.5 μl of compound diluted in DMSO, 5 μl of radioligand diluted in binding buffer.
(§5) The day prior to performing the experiment 50 μl DMSO was added to each well of the compound plates to yield compounds at a final concentration of 10 mM. Daughter plates were then created by diluting the compounds further in DMSO to a concentration of 0.5 mM. The mother plates were frozen immediately.
(§6) Immobilize membranes into FlashPlate microplates using PerkinElmer BioSignal's proprietary coating procedure. Dilute radioligand to 5× the final concentration in binding buffer. Add 19.5 μl buffer to each well of the FlashPlate. Add 0.5 μl of DMSO (total value, 5 wells), reference ligand (non-specific value, 3 wells) or compound to the corresponding wells in the FlashPlate microplate. Initiate the reaction by adding 5 μl of radioligand to each well. Apply TopSeal-A onto FlashPlate microplates. Incubate at room temperature for 1 hour in the dark. Count for 30 seconds per well on TopCount Microplate Scintillation and Luminescence Counter (PerkinElmer) using a count delay of 60 seconds.
(§7) Percentage inhibition was calculated using the following formula: [formula]

[2] = target: T2, Human κ-Opioid (KOP) (Homo sapiens, UniProt P41145); test: Radioligand binding, human κ-opioid (KOP) membranes, filtration, [3H]-Diprenorphine; conditions: compound at 10 μM, [3H]-Diprenorphine
T2 construct: purchased Perkin Elmer Biosignal
Method: as §1, §2, §3
(§8) 44 μl membranes diluted in buffer, 1 μl of compound diluted in DMSO, 5 μl of radioligand diluted in binding buffer.
as §5
(§9) Thaw membranes on ice then dilute membranes in binding buffer at a concentration of 1 Unit per well. Dilute radio-ligand to 10 times the final concentration in binding buffer. Add 44 μl of diluted membranes to each well of the deep-well plate. Add 1 μl of DMSO (total value, 5 wells), reference ligand (non-specific value, 3 wells) or compound to the corresponding wells in the deep-well plate. Initiate the reaction by adding 5 μl of radioligand to each well and vortex gently. Incubate at room temperature for 1 hour. During incubation, pre-incubate the Multiscreen Harvest plates in 0.3% PEI. Filter over pre-soaked Multiscreen Harvest plates using a Tomtec Harvester. Wash 9 times with 500 μl of cold 50 mM Tris-HCl pH 7.4 at 4° C. and air-dry for 30 minutes at room temperature under a fume hood. Apply a bottom seal to the Multiscreen Harvest plates. Add 25 μl of MicroScint-0 to each well. Apply TopSeal-A to the plate. Count for 30 seconds per well on TopCount Microplate Scintillation and Luminescence Counter (PerkinElmer) using a count delay of 60 seconds.
as §7

[3] = target: T3, Human Melanocortin (MC3) (Homo sapiens, UniProt P41968); test: Radioligand binding, human melanocortin MC3 membranes, FlashPlate, [125I]-NDP-αMSH; conditions: compound at 10 μM, [125I]-NDP-αMSH
T3 construct: purchased Perkin Elmer Biosignal
Method: as §1, §2, §3, §4, §5, §6, §7

[4] = target: T4, Human Melanocortin (MC4) (Homo sapiens, UniProt P32245); test: Radioligand binding, human melanocortin MC4 membranes, FlashPlate, [125I]-NDP-αMSH; conditions: compound at 10 μM, [125I]-NDP-αMSH
T4 construct: purchased Perkin Elmer Biosignal
Method: as §1, §2, §3, §4, §5, §6, §7

[5] = target: T5, Human melanocortin (MC5) (Homo sapiens, UniProt P33032); test: Radioligand binding, human melanocortin MC5 membranes, FlashPlate, [125I]-NDP-αMSH; conditions: compound at 10 μM, [125I]-NDP-αMSH
T5 construct: purchased Perkin Elmer Biosignal
Method: as §1, §2, §3, §4, §5, §6, §7

[6] = target: T6, Human melanin-concentrating hormone (MCH1) (Homo sapiens, UniProt Q99705); test: Radioligand binding, human melanin-concentrating hormone MCH1 membranes, FlashPlate, [125I]-S36057; conditions: compound at 10 μM
T6 construct: purchased Perkin Elmer Biosignal
Method: as §1, §2, §3, §4, §5, §6, §7

[7] = target: T7, Human μ-opioid (MOP) (Homo sapiens, UniProt P35372); test: Radioligand binding, human μ-opioid (MOP) membranes, FlashPlate, [3H]-Naloxone; conditions: compound at 10 μM, [3H]-Naloxone
T7 construct: purchased Perkin Elmer Biosignal
Method: as §1, §2, §3, §4, §5, §6, §7

[8] = target: T8, Human neurokinin (NK1) (Homo sapiens, UniProt P25103); test: Radioligand binding, human neurokinin NK1 membranes, filtration, [125I]-Substance P; conditions: compound at 10 μM, [125I]-Substance P
T8 construct: purchased Perkin Elmer Biosignal
Method: as §1, §2, §3, §8, §5, §9, §7

[9] = target: T9, Human neuropeptide Y (NPY-Y1) (Homo sapiens, UniProt P25929); test: Radioligand binding, human neuropeptide Y NPY-Y1 membranes, FlashPlate, [125I]-PYY; conditions: compound at 10 μM, [125I]-PYY
T9 construct: purchased Perkin Elmer Biosignal
T9 sequence (P25929 1-384): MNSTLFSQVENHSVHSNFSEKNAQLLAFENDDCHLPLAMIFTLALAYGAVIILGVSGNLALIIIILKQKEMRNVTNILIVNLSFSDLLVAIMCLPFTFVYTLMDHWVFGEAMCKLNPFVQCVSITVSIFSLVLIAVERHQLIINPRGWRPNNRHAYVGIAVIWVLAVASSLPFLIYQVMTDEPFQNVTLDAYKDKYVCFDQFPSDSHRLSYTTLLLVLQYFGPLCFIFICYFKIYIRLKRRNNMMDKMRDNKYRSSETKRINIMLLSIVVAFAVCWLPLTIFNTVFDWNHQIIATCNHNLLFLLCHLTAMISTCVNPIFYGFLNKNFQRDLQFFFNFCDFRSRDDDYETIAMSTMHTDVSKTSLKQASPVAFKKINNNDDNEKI
Method: as §1, §2, §3, §4, §5, §6, §7

[10] = target: T10, Human opioid (ORL1) (Homo sapiens, UniProt P41146); test: Radioligand binding, human opioid ORL1 membranes, FlashPlate, [125I]-Nociceptin; conditions: compound at 10 μM, [125I]-Nociceptin
T10 construct: purchased Perkin Elmer Biosignal
Method: as §1, §2, §3, §4, §5, §6, §7

[11] = target: T11, Mouse urotensin (mUR2) (Mus musculus, UniProt Q8VIH9); test: Radioligand binding, mouse urotensin mUR2 membranes, FlashPlate, [125I]-Urotensin II; conditions: compound at 10 μM, [125I]-Urotensin II
T11 construct: purchased Perkin Elmer Biosignal
T11 sequence (Q8VIH9 1-385): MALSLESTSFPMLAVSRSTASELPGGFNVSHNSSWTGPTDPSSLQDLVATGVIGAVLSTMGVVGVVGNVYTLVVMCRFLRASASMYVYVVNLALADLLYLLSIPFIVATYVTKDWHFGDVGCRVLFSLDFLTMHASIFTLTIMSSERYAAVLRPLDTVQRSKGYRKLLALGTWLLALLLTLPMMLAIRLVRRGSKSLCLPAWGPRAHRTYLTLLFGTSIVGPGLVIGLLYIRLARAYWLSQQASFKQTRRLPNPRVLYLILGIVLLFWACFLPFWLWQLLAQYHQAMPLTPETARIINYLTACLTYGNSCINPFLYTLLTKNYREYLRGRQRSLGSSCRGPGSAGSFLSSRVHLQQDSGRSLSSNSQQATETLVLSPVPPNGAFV
Method: as §1, §2, §3, §4, §5, §6, §7

T3 sequence (P41968 whole entry): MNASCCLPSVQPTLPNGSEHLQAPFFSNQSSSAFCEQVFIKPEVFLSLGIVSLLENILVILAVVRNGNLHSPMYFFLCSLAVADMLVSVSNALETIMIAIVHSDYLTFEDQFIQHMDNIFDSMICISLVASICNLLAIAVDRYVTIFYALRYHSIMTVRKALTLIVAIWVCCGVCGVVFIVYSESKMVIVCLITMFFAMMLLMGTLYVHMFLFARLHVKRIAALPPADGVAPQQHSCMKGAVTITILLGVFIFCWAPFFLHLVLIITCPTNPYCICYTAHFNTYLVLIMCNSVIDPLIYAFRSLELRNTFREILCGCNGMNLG
T6 sequence (Q99705 whole entry): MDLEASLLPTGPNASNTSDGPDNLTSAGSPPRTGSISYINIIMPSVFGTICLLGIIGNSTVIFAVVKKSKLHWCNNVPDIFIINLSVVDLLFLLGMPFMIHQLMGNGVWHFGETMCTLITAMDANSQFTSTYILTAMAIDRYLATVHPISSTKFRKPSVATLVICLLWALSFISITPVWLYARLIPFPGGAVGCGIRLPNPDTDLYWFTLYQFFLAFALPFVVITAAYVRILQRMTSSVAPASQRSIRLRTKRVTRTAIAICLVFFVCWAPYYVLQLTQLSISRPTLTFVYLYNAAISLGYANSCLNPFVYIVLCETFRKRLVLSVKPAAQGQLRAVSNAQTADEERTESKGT
T8 sequence (P25103 whole entry): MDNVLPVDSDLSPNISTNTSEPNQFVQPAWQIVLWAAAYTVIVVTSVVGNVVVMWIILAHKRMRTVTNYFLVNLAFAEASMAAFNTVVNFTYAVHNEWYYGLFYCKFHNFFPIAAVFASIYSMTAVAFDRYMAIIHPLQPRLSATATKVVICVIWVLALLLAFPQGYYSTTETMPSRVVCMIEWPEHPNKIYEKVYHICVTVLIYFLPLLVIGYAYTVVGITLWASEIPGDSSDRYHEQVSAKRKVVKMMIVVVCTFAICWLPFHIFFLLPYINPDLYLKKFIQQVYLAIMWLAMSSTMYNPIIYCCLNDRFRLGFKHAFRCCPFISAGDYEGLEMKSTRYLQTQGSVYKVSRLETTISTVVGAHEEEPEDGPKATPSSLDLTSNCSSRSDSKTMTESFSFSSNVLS
T10 sequence (P41146 whole entry): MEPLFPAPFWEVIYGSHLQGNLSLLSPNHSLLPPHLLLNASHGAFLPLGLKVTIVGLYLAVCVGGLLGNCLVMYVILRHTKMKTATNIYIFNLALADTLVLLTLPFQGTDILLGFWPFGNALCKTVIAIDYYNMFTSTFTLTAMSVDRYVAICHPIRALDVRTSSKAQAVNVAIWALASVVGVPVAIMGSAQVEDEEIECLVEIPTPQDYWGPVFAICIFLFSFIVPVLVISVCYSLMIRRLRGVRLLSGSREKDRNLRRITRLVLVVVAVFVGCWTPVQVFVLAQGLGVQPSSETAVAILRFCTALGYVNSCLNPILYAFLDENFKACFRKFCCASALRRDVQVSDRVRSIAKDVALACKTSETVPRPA
T4 sequence (P32245 whole entry): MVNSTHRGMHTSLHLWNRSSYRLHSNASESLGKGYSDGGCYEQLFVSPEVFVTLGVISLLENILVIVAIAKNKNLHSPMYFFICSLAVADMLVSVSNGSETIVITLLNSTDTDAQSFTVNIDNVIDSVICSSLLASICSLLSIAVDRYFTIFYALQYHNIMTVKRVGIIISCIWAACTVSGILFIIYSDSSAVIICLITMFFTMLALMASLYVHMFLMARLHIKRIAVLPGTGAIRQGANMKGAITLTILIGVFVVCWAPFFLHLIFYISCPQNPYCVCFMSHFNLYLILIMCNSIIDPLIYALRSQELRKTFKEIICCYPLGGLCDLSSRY
T7 sequence (P35372 whole entry): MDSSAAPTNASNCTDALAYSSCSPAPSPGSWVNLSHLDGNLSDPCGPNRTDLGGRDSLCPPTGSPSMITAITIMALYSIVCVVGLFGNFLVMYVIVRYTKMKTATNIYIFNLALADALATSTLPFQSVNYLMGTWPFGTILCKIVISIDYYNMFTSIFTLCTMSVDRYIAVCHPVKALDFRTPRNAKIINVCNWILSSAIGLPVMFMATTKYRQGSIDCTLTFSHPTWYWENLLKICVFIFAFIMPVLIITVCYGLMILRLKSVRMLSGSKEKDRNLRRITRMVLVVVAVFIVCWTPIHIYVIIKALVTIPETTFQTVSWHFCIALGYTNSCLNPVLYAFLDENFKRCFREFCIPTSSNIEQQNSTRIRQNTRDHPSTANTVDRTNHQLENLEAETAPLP
T1 sequence (P41143 whole entry): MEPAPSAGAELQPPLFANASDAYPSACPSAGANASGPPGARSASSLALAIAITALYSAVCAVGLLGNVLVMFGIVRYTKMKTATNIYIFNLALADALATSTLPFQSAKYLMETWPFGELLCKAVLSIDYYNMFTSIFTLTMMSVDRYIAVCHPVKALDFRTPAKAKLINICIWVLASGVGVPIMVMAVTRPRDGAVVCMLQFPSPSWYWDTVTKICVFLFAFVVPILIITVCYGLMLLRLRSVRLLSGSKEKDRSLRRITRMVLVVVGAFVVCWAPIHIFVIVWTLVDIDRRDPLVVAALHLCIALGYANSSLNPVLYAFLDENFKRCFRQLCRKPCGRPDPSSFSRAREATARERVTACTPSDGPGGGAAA
T2 sequence (P41145 whole entry): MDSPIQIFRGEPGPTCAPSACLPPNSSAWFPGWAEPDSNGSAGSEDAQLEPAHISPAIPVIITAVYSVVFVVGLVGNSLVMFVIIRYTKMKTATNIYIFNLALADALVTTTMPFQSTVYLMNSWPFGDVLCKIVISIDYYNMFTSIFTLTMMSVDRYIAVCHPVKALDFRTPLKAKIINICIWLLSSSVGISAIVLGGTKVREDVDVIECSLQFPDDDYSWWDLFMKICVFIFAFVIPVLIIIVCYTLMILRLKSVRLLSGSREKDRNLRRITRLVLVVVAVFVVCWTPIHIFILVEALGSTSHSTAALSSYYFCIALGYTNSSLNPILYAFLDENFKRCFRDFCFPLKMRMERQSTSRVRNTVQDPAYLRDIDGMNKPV
T5 sequence (P33032 whole entry): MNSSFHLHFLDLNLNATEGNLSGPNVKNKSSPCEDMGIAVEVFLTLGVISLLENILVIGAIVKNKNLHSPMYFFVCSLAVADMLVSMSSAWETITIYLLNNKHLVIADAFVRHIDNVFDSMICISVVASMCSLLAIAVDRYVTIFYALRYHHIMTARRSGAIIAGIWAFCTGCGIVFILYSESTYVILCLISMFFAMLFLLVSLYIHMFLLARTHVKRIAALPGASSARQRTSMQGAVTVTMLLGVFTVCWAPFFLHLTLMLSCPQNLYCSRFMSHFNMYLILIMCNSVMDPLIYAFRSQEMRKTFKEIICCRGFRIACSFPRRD

## COCC1OC(OCc2ccc(Cl)cc2)C(NC(=O)CCCNC(=N)N)C(OCc2ccc3ccccc3c2)C1O (stereo not shown) [compound 213]
[1]; FlashPlate
  A1: inhibition of radioligand binding: − (“−” indicates less than 50% inhibition at 10 μM)
[2]; filtration
  A2: inhibition of radioligand binding: + (“+” indicates greater than 50% inhibition at 10 μM)
[3]; FlashPlate
  A3: inhibition of radioligand binding: − (“−” indicates less than 50% inhibition at 10 μM)
[4]; FlashPlate
  A4: inhibition of radioligand binding: + (“+” indicates greater than 50% inhibition at 10 μM)
[5]; FlashPlate
  A5: inhibition of radioligand binding: + (“+” indicates greater than 50% inhibition at 10 μM)
[6]; [125I]-S36057, FlashPlate
  A6: inhibition of radioligand binding: + (“+” indicates greater than 50% inhibition at 10 μM)
[7]; FlashPlate
  A7: inhibition of radioligand binding: − (“−” indicates less than 50% inhibition at 10 μM)
[8]; filtration
  A8: inhibition of radioligand binding: + (“+” indicates greater than 50% inhibition at 10 μM)
[9]; FlashPlate
  A9: inhibition of radioligand binding: − (“−” indicates less than 50% inhibition at 10 μM)
[10]; FlashPlate
  A10: inhibition of radioligand binding: + (“+” indicates greater than 50% inhibition at 10 μM)
[11]; FlashPlate
  A11: inhibition of radioligand binding: − (“−” indicates less than 50% inhibition at 10 μM)

## COC[C@H]1OC(OCc2ccc3ccccc3c2)[C@H](NC(=O)CCCN)[C@@H](OCc2ccc(-c3ccccc3)cc2)[C@@H]1O (stereo partly shown) [compound 337]
[1]
  A1: inhibition of radioligand binding, human δ-opioid (DOP): − (“−” indicates less than 50% inhibition at 10 μM)
[2]
  A2: inhibition of radioligand binding, human κ-opioid (KOP): − (“−” indicates less than 50% inhibition at 10 μM)
[3]
  A3: inhibition of radioligand binding, human melanocortin (MC3): − (“−” indicates less than 50% inhibition at 10 μM)
[4]
  A4: inhibition of radioligand binding, human melanocortin (MC4): − (“−” indicates less than 50% inhibition at 10 μM)
[5]
  A5: inhibition of radioligand binding, human melanocortin (MC5): + (“+” indicates greater than 50% inhibition at 10 μM)
[6]; [125I]-S36057
  A6: inhibition of radioligand binding, human melanin-concentrating hormone (MCH1): + (“+” indicates greater than 50% inhibition at 10 μM)
[7]
  A7: inhibition of radioligand binding, human μ-opioid (MOP): + (“+” indicates greater than 50% inhibition at 10 μM)
[8]
  A8: inhibition of radioligand binding, human neurokinin (NK1): + (“+” indicates greater than 50% inhibition at 10 μM)
[9]
  A9: inhibition of radioligand binding, human neuropeptide Y (NPY-Y1): − (“−” indicates less than 50% inhibition at 10 μM)
[10]
  A10: inhibition of radioligand binding, human opioid (ORL1): − (“−” indicates less than 50% inhibition at 10 μM)
[11]
  A11: inhibition of radioligand binding, mouse urotensin (mUR2): − (“−” indicates less than 50% inhibition at 10 μM)
